Patent US11382919B2 (priority 2017, dated 2022)

Tests used:
[1] = system: phosphatidylserines (PtdS), Akt, PLSCR1 at the outer leaflet of the plasma membrane; assay: Confocal imaging of HSV-induced externalization of PtdS, Akt and PLSCR1 in non-permeabilized cells; format: cell-based, human
[2] = system: HSV-1(VP26GFP); format: cell-based; settings: Vk2E6/E7 cells, R5421 pretreatment
[3] = system: HSV-2(333ZAG); format: cell-based; settings: Vk2E6/E7 cells, R5421 pretreatment
[4] = system: HSV-2(G); assay: Viral plaque assay with HSV-2(G); format: cell-based; settings: 5 μM R5421 pretreatment, drug added back to overlay, plaques 48 h post-infection
[5] = system: HSV-1; settings: sporadic fatal encephalitis; optimal intravenous acyclovir therapy; cited from earlier work
[6] = system: Akt; assay: Ionomycin-induced Akt phosphorylation (biotinylation of cell surface proteins, immunoblot); format: cell-based, human; settings: CaSki cells; 1 μM ionomycin; 5 or 15 minutes; immunoblotting
Protocol: (§1) FIG. 9A-9E. Ionomycin activates phospholipid scramblase leading to externalization of phosphatidylserines and Akt. (A). CaSki cells were treated with ionomycin (1 μM), HSV-2(G) (MOI 5 pfu/cell) or DMSO (0.1%) for 15 minutes and then fixed and stained with antibodies to PLSCR1 (polyclonal rabbit and Alexa 555, red), PtdS (monoclonal antibody and Alexa555, red), or Akt (polyclonal rabbit and secondary Alexa488, green) as indicated. Nuclei were stained blue with DAPI. Images are representative of results obtained from 2-3 independent experiments; bar=10 μm. Five fields were scanned and mean fluorescence intensity (MFI) per cell calculated using ImageJ software (NIH); results are mean+SEM and the asterisks indicate significant differences by ANOVA compared to DMSO control treated cells. (B). CaSki cells were treated as in A for 15 minutes and then cell lysates were harvested, incubated with a goat anti-PLSCR1 antibody and immune complexes precipitated with protein G-agarose and analyzed by Western blotting with a mouse anti-phosphotyrosine mAb (PY20) or mouse anti-PLSCR1 Ab. […] (C). […] Cell surface proteins were biotinylated and precipitated with streptavidin magnetic beads and the pellet analyzed by immunoblotting with rabbit anti-pAktThr^308 or mouse anti-pAktS^473 1 Abs. In parallel, cellular lysates were analyzed by immunoblotting for total cellular Akt (rabbit polyclonal Ab). […]

[7] = system: PLSCR1; assay: Ionomycin activation of PLSCR1 (microscopy, co-immunoprecipitation/anti-phosphotyrosine blot); format: cell-based, human; settings: CaSki cells; 1 μM ionomycin; 15 minutes; immunoblotting
Protocol: as §1

[8] = system: CaSki and HaCAT cells; settings: 3 independent experiments, FIG. 13

For `CC(=O)OCOC(=O)CN(CC(=O)OCOC(C)=O)c1ccccc1OCCOc1ccccc1N(CC(=O)OCOC(C)=O)CC(=O)OCOC(C)=O` [BAPTA-AM], the “number of cells with detectable PtdS, Akt, or PLSCR1 at the outer leaflet” value ([1]; 100 μM pretreatment, CaSki, […]) was “significantly reduced”.

With `O=C(O)C(=O)O` [R5421, ethanedioic acid] the “PtdS and Akt externalization” value [1] was “prevented PtdS and Akt externalization”, the “viral induced externalization of PtdS” value ([1]; CaSki cells, 5 μM R5421 15 min pretreatment, […]) was “prevented the viral induced externalization of PtdS” and the “PtdS and Akt at the outer leaflet” value ([1]; R5421 added 30 min pi, CaSki, […]) was “persistence of PtdS and Akt at the outer leaflet for up to 4 h pi”. For the same compound, the “infection, percentage of GFP positive cells 16 h pi” value [2] was “reduced”, the “infection, percentage of GFP positive cells 16 h pi” value [3] was “reduced” and the “reduction of HSV-2 plaque formation relative to DMSO treated controls” value ([4]; CaSki cells) was 88±7%. For the same compound, the “reduction of HSV-2 plaque formation relative to DMSO treated controls” value ([4]; HaCAT cells) was 71.7±7% and the “reduction of HSV-2 plaque formation relative to DMSO treated controls” value ([4]; VK2E6/E7 cells) was 95±6%.

In the case of `Nc1nc2c(ncn2COCCO)c(=O)[nH]1` [acyclovir, 9-[2-hydroxymethyl]guanine], the mortality [5] is listed as 14-19% and the “survivors who resume a normal lifestyle” value [5] is listed as under 50%.

In the case of `C[C@H](CCC(=O)O)C[C@H](C)C[C@H](C)C(=O)/C=C(\O)[C@H](C)C[C@H](C)C/C=C/[C@@H](C)[C@@H](O)[C@@H](C)[C@@H](O)C[C@@H]1CC[C@@](C)([C@H]2CC[C@@](C)([C@@H](C)O)O2)O1` [ionomycin], the “phosphorylated Akt” value [6] is reported as “phosphorylated Akt (both at the threonine 308 and serine 473 sites)” and the “phosphorylated PLSCR1” value [7] is reported as “an increase in phosphorylated PLSCR1”.

For Nonoxynol-9 [N9], the “cytotoxicity, cell viability as percentage of control” value [8] was “kills cells”.
